The text below walks through data of US10166271B2, “Methods for promoting hair growth” (THE REGENTS OF THE UNIVERSITY OF CALIFORNIA, priority 2006, dated 2019).

What all share (type): in vivo
Experiment [1] has as its system hair follicles of CRF-OE mice. Nature of the experiment: Histology of dorsal skin hair follicles (H/E) in CRF-OE mice (Example 3). The note with it: for Hair follicle morphology: H/E-stained skin sections of adult CRF-OE mice; for Skin thickness or hair follicle numbers versus wild type mice: adult CRF-OE mice. From the text: Wild-type (C57BL/6) mice, saline-treated CRF-OE mice, CRF-OE mice treated with astressin B or astressin 2B as described in Example 1 (sc injection), and adult CRF-OE mice treated with astressin 2B as described in Example 2 (ip injection), were euthanized, Male mice were used in each case. Whole dorsal skin pieces were harvested for histology four weeks after the final sc injection of the respective peptides or two weeks after ip astressin B or saline injection.
Skin samples were fixed in 4% paraformaldehyde. Paraffin-embedded sections were processed for staining of hematoxylin/eosin and examined by light microscopy. The thickness of the epidermis plus dermis and depth of hair follicles were measured and the number of hair follicles was counted per unit (a field obtained with 10× objective) in a total of 5 units per section.

The test system of experiment [2] is young CRF-OE mice. Description: Astressin B fragments, prevention of hair loss in young CRF-OE mice (Example 9). To be noted: 5 μg sc or ip x 5 days, all time points. How it is done:
CRF-OE mice similarly injected with 0.1 ml saline alone (or 5 μg astressin 2B in 0.1 ml saline) are used as negative controls. Astressin B fragments are as described in Example 8.

Experiment [3] has as its system young CRF-OE mice. Nature of the experiment: Prevention of hair loss in young (not-yet-alopecic) CRF-OE mice, sc injection (Example 4). To be noted: for Back Hair Score (BK) / Skin pigmentation (Pg) score / Ventral Abdomen Hair Score (VAb): sc 5 μg/mouse/day x 5 days, individual mice and group mean; for Back Hair Score (BK) / Skin pigmentation (Pg) score / Ventral Abdomen Hair Score (VAb) / Induction of skin pigmentation / Hair loss / development of alopecia: young CRF-OE mice; for Induction of skin pigmentation: first week post injection; for Hair loss / development of alopecia: week 4 to week 16 post treatment. On the procedure: Alopecia in this strain fully develops in adulthood at approximately 12 weeks and older.
Young CRF-OE mice (5-6 weeks old) were treated with astressin B, astressin 2B, or vehicle (saline). Treatments were a single, daily subcutaneous injection (0.1 ml volume) of vehicle alone or 5 μg peptide per mouse for five consecutive days. Pigmentation and hair coverage scores were determined pretreatment and 1, 4, 8 and 16 weeks after the last treatment. Hair growth and pigmentation were determined as described in Examples 1 and 2.

The next experiment relates to CRF-OE mice. Description: Hair growth and skin pigmentation after sc injection in adult alopecic CRF-OE mice (Example 1). The note with it: for Back Hair Growth Score (BK) / Skin pigmentation (Pg) score: score 0-10, individual mice. From the text: Adult (6-9 month old) male and female C57BL/6 mice that overexpress a rat CRF transgene (Stenzel-Poore et al., Endocrinol., 130:3378-3386, 1992) were used in this Example. […] Moreover, these animals display physical changes, such as excess abdominal fat accumulation, muscle atrophy, thin skin, and alopecia on the back and ventral abdomen area. Alopecia in these animals develops after about 7-8 weeks of age and is fully developed at about 4 months of age. This phenotype, i.e., hair loss in adulthood, is similar to that observed in some forms of human alopecia (e.g., the age-dependent balding of adult, human males (and females)).
CRF-OE mice were housed in standard plastic cages in a controlled environment (temperature=21-23° C.; humidity=30-35%; 12-hour light cycle with lights on 06:00 AM) and fed a standard rodent diet (PROLAB™ RMH 2500). Experiments were conducted in accordance with institutional guidelines.
Eight (8) male and 9 female CRF-OE mice were injected subcutaneously with 5 μg/mouse astressin B or astressin 2B, in 0.1 ml sterile water, once per day for 5 consecutive days. Similar doses of astressin B and astressin 2B previously were shown, respectively, to inhibit elevated ACTH release in adrenalectomized rats for over 12 hours (Rivier et al., J. Med. Chem., 42:3175-3182, 1999) and delay gastric emptying for over 6 hours (Rivier et al., J. Med. Chem., 45:4737-4747, 2002). […] CRF-OE mice similarly injected with saline alone were used as negative controls. Astressin B and astressin 2B peptides were synthesized as previously described (Rivier et al., J. Med. Chem., 45:4737-4747, 2002; Gulyas et al., Proc. Natl. Acad. Sci. USA, 92:10575-10579, 1995) and were diluted with sterile water immediately preceding each injection.
It appeared that hair growth (if any) typically was completed by 4 weeks post-treatment.
Hair growth in CRF-OE mice was assessed using the hair growth scale developed by Vegesna et al. […], 2002) modified to account for phenotypic differences between CRF-OE mice. Scores were made visually as well as using photographs of each mouse at a weekly interval. The degree of alopecia varied between individual CRF-OE mice; thus, the percent difference between the amount of hair present in the test area (described below) before and 4 weeks after treatment was converted to a score of 0-10. A zero score corresponded to a no change in the amount of hair in the test area and a score of 10 corresponded to full hair growth in the entire test area. The scale for monitoring hair growth in CRF-OE mice is more particularly described in Table 2.
The area was defined anteriorly by a line joining the front of the ears; posteriorly by a line joining the pelvic girdles; and laterally, between the lines projecting caudally from each ear root.
Pigmentation of the skin (also referred to as skin color) in the test region was also measured because, in C57BL/6 mice, the skin darkens at the onset of hair growth. A pigmentation score from 0-10 was given to each mouse with a score of 0 corresponding to bright pink skin color/pigment in the entire test region, a score of 1-5 corresponding to increasing intensity of a pale greyish color/pigment of skin in the test region, a score of 6-9 corresponding to increasing but non-confluent darker color/pigment of skin in the test region, and a score of 10 corresponding to black pigmentation of the entire test region. Pigmentation was measured one week after the fifth and final injection because changes (if any) in pigmentation are substantially complete by that time.

The mark [4] stands for this setting: sc 5 μg/mouse/day x 5 days, adult CRF-OE mice, Week 0 (before injection).
Where [5] appears, read: sc 5 μg/mouse/day x 5 days, adult CRF-OE mice, Week 1 after last injection.
The mark [6] stands for this setting: sc 5 μg/mouse/day x 5 days, adult CRF-OE mice, Week 0 (before injection), female mice.
[7] abbreviates: sc 5 μg/mouse/day x 5 days, adult CRF-OE mice, Week 0 (before injection), male mice.
The mark [8] stands for this setting: sc 5 μg/mouse/day x 5 days, adult CRF-OE mice, Week 1 after last injection, female mice.
[9] abbreviates: sc 5 μg/mouse/day x 5 days, adult CRF-OE mice, Week 1 after last injection, male mice.

Values joined by “and” are separate entries in the source; they are usually repeats but may differ in a detail not shown here. Equal values may be shown once.

With “cyclo(31-34)[DPhe11, His12, CαMeLeu13,39, Nle17, Glu31, Lys34]Ac-Sau(8-40) [Astressin 2B, reference compound]”, the Hair follicle morphology result in experiment [1] is listed as “did not have the normal morphology found in wild-type mice”. In addition, the “Skin thickness or hair follicle numbers versus wild type mice” value in experiment [1] is “no significant differences”. In the experiment on young CRF-OE mice [2], the “Hair in the test area” value was “develop ultimately alopecia in the test area”. In addition, the “Back Hair Score (BK)” value in the experiment with young CRF-OE mice [3] (Before (Week 0)) and in the experiment with young CRF-OE mice [3] (Week 1) was 9 each time. Moreover, the “Skin pigmentation (Pg) score” value in the experiment with young CRF-OE mice [3] (Before (Week 0)) was 0; in the experiment on CRF-OE mice (setting [4]) it was 0; with CRF-OE mice (setting [5]), 1 and 2 (2×). Besides, the “Ventral Abdomen Hair Score (VAb)” value in the experiment with young CRF-OE mice [3] (Week 16) worked out at 2.5. In addition, the “Induction of skin pigmentation” value in the experiment on young CRF-OE mice [3] is reported as “moderate induction of skin pigments”. Moreover, the “Hair loss / development of alopecia” value in the experiment on young CRF-OE mice [3] was “lost hair and developed full alopecia”. Moreover, the “Mice that grew significant amounts of hair” value in the experiment on CRF-OE mice (sc 5 μg/mouse/day x 5 days, adult CRF-OE mice) worked out at 0%. Also, the “Back Hair Growth Score (BK)” value in the experiment with CRF-OE mice (setting [4]) was 0 (2×) and 5; with CRF-OE mice (setting [5]) it was 0; in the experiment on CRF-OE mice (sc 5 μg/mouse/day x 5 days, adult CRF-OE mice, Week 4 after last injection), 0.

Turning to “(cyclo 30-33)[DPhe12, Nle21,38, Cml27,40, Glu30, Lys33]Ac-h/rCRF9-41 [Astressin B]”, in experiment [1], the Hair follicle morphology result was “more developed and defined in structure”. Besides, the “Skin thickness or hair follicle numbers versus wild type mice” value in experiment [1] was “no significant differences”. In addition, the “Average depth of hair follicles” value in experiment [1] (treated adult CRF-OE mice (FIG. 3B, 4 weeks after last sc treatment), not significantly different from wild type) came out at 0.42±0.05 mm. Further, the “Mice with dark pigmentation of the skin” value with young CRF-OE mice [3] (1 week after the last injection, fraction of mice) is given as 5/5. In the experiment on young CRF-OE mice [3] (by 4, 8 and 16 weeks after the last injection, fraction of mice), the “Mice with little or less hair loss (as compared to vehicle-treated subjects)” value is 4/5. The “Skin pigmentation (Pg) score” value in the experiment with young CRF-OE mice [3] (Before (Week 0)) is 0; with CRF-OE mice (setting [6]), 0; in the experiment on CRF-OE mice (setting [7]) it was 0; with CRF-OE mice (setting [8]), 2 and 8 (2×) and 10 and 0 and 7; in the experiment on CRF-OE mice (setting [9]) it was 10 (2×) and 7 and 4. The “Ventral Abdomen Hair Score (VAb)” value in the experiment on young CRF-OE mice [3] (Week 4) is reported as 10. Further, in the experiment on young CRF-OE mice [3], the “Induction of skin pigmentation” value is “induced skin pigmentation within one week after the final injection”. Moreover, the “Hair loss / development of alopecia” value is on record as “remained protected from developing full alopecia” with young CRF-OE mice [3] and “started to lose hair gradually 2 months after treatment” with young CRF-OE mice [3] (listed as astressin 1). Moreover, the “Mice responding with increased pigmentation and hair growth” value with CRF-OE mice (female CRF-OE mice, 8 out of 9, sc) came to 89%; in the experiment on CRF-OE mice (male CRF-OE mice, 4 out of 4, sc), 100%. For the same substance, the “Back Hair Growth Score (BK)” value with CRF-OE mice (setting [6]) is 0 (5×) and 1; in the experiment on CRF-OE mice (setting [7]) it was 0 (2×) and 1 (2×); with CRF-OE mice (setting [8]) it was 2 (5×) and 1; in the experiment with CRF-OE mice (setting [9]) it was 2 (2×) and 1 (2×); in the experiment on CRF-OE mice (sc 5 μg/mouse/day x 5 days, adult CRF-OE mice, Week 4 after last injection, female mice), 2 and 8 (2×) and 9 (2×) and 0; in the experiment on CRF-OE mice (sc 5 μg/mouse/day x 5 days, adult CRF-OE mice, Week 4 after last injection, male mice), 8 and 9 and 7 and 6. Further, the “Hair growth maintained post treatment” value in the experiment with CRF-OE mice (sc, adult CRF-OE mice) is recorded as “at least 4 weeks”. Further, the “Onset of hair growth” value in the experiment on CRF-OE mice (sc, adult CRF-OE mice, FIG. 1B) is reported as “as early as one week after the last injection”. In addition, the Hair growth coverage in the experiment with CRF-OE mice (sc, range over treated adult CRF-OE mice) is recorded as 20-90%. In the experiment with CRF-OE mice (two adult CRF-OE mice observed for an extended period, post treatment), the “Hair growth substantially maintained without subsequent treatment” value was “up to 4 months”.
